{"source": "patent US20240398785A1", "about": "“SMALL MOLECULE DRUGS FOR THE INDUCTION OF TRAINED IMMUNITY” (THE UNIVERSITY OF CHICAGO, priority 2023, published 2024)", "key": {"[1]": {"test_system": "BMDMs", "assay": "Annexin-V staining for apoptotic cells", "type": "cell-based, mouse", "settings": "100 nM, 24 hours", "procedure": "FIGS. 9A-9E: Representative plots for Annexin V gating strategy for apoptotic cells: BMDMs were stimulated with nothing (unstained control, FIG. 9A), PBS (negative control, FIG. 9B), Camptothecin (positive control, FIG. 9C) or A1155463 (FIG. 9D); n=3, (except camptothecin n=1). Results from plots 9B-9D depicted in FIG. 9E.\nSince Bcl-xL is a known anti-apoptotic protein, a study was performed to see if inhibition with 100 nM A1155463 induced apoptosis in BMDMs. To test this, Annexin-V staining was used to gate for apoptotic cells 24 hours following stimulation with either PBS or A1155463."}, "[2]": {"test_system": "bone-marrow cells", "assay": "Bone-marrow cells of trained mice challenged ex-vivo with LPS", "type": "in vivo, mouse", "settings": "5 ng/mL LPS ex vivo, 24 hours", "procedure": "(§1) FIGS. 6A-6H: in-vivo A1155463 trained immunity (TI) assays. FIG. 6A is a schematic showing the in-vivo training schedule. Mice were dosed intraperitoneally (i.p.) with training material (PBS or A1155463 at 15 milligrams per kilogram body weight (mg/kg)) daily for six days. Mice were challenged with […] lipopolysaccharide (LPS) on day 7. FIG. 6B is a graph showing the interleukin-6 (IL-6) and tumor necrosis factor-alpha (TNF-α) levels (expressed as picograms per milliliter (pg/ml) 1 hour (h) following LPS challenge with either PBS (black) or A1155463 (pink); n=5. FIG. 6C is a graph showing the percentage (%) of small peritoneal macrophages (SPMs) from the peritoneal cavity of PBS (black) or A1155463 trained (pink) mice 2 h post LPS challenge on day 7. FIG. 6D is a graph showing the IL-6 levels (pg/ml) from bone-marrow cells isolated on day 7 challenged ex-vivo with LPS from either PBS (black) or A1155463 (pink) trained mice; n=3. FIG. 6E is a schematic showing the in-vivo training schedule for B16.F10 tumor challenge. […]\nApart from increased systemic cytokines, recruitment of monocyte-derived small peritoneal macrophages (SPMs) is another hallmark of enhanced training. […] Bone-marrow cells from PBS or A1155463 trained cells were challenged with 5 ng/mL of LPS and the supernatant was analyzed 24 hours later. […]"}, "[3]": {"test_system": "BMDMs", "assay": "A1155463 immunogenicity, BMDM supernatant after 24 hours", "type": "cell-based, mouse", "settings": "no challenge", "procedure": "FIG. 7: Testing immunogenicity of A115463 on BMDMs: BMDMs (100,000 cells per well) were incubated with PBS (red), different doses of A1155463 (blue 10 uM, green 1 uM or purple 0.1 uM) or different concentrations of DMSO, reflective of the A1155463 doses for 24 h.\n(§2) Bcl-xL is an anti-apoptotic protein with some role in mediating inflammatory reactions.^32,33 Most documented inducers of trained immunity elicit an initial immune response upon administration. However, A1155463 has never been reported elicit inflammatory responses in vitro. To test if A1155463 elicited an enhanced innate response on its own in vitro, supernatant from BMDMs cultured with A1155463 for 24 hours was analyzed. […] The non-immunogenicity of A1155463 was validated using an NF-kb reporter cell line. […] Taken together, this evidence supports that A1155463 is a non-immunogenic trained immunity inducing molecule."}, "[4]": {"test_system": "RAW-Blue cells", "assay": "RAW-Blue NF-kb reporter assay", "type": "cell-based", "settings": "after 18 hours", "procedure": "FIG. 8: RAW-Blue assay: RAW-Blue cells (100,000 cells per well) were incubated with PBS (black), A1155463 (pink) or 100 ng/mL LPS (green) for 18 h.\nas §2"}, "[5]": {"test_system": "B16.F10 tumors", "assay": "B16.F10 tumor model after A1155463 training", "type": "in vivo, mouse", "procedure": "as §1, with “challenge. FIG. 6F is a graph showing the tumor volumes (in cubic millimeters (mm3)) of mice trained with PBS (black) or A1155463 (pink) mice; n=8. FIG. 6G is a schematic of the in-vivo training schedule for B16.F10 tumor challenge with checkpoint therapy (CPT) administered on day 14 and 17.” for “challenge.”"}}, "data": [{"smiles": "CN(C)CC#Cc1ccc(OCCCc2sc(N3CCc4cccc(C(=O)Nc5nc6ccccc6s5)c4C3)nc2C(=O)O)c(F)c1", "note": "[A1155463, 2-(8-(benzo[d]thiazol-2-ylcarbamoyl)-3,4-dihydroisoquinolin-2(1H)-yl)-5-(3-(4-(3-(dimethyl-amino)prop-1-yn-1-yl)-2-fluorophenoxy)propyl)thiozole-4-carboxylic acid]", "values": [{"measurement": "percentage of apoptotic cells", "setting": "[1]", "result": "No significant difference"}, {"measurement": "increase in bone-marrow derived IL-6 levels vs untrained control", "setting": "[2]", "result": "approximately 5 fold"}, {"measurement": "IL-6 levels vs PBS-treated BMDMs", "setting": "[3]", "result": "No significant difference"}, {"measurement": "NF-kb reporter signal vs PBS-treated cells", "setting": "[4]", "result": "No significant difference"}, {"measurement": "tumor growth vs untrained (vehicle) control", "setting": "[5]; 15 mg/kg daily for 6 days, s.c. B16.F10 24 hours after last dosing", "result": "significant decrease in tumor growth"}, {"measurement": "tumor growth with checkpoint therapy", "setting": "[5]; plus anti-PDL1 and anti-CTLA-4 on days 14 and 17", "result": "Significantly reduced tumor growth"}]}]}
